# Where “and” joins values, the source holds several entries; their conditions need not be identical. Equal values may be shown once.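 Exposure lasted 48 hours, with cells grown in 96-well plates and compounds tested at five concentrations. Here, GI50 denotes the concentration required for 50% inhibition of growth. Definition used: TGI = concentration required for complete inhibition of growth.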
# How the values were obtained:
# Assay in all cases: NCI-60 cell line screen, 48 h
# [1] = tested on: UACC-62 melanoma
# [2] = tested on: K-562 leukemia
# [3] = tested on: RXF 393 renal
# [4] = tested on: SK-OV-3 ovarian
# [5] = tested on: OVCAR-4 ovarian
# [6] = tested on: SK-MEL-28 melanoma
# [7] = tested on: MDA-MB-231 breast
# [8] = tested on: IGROV1 ovarian
# [9] = tested on: T-47D breast
# [10] = tested on: HS 578T breast
SMILES,GI50 [1],TGI [1],GI50 [2],TGI [2] [µM],GI50 [3],TGI [3],GI50 [4],TGI [4],GI50 [5],TGI [5],GI50 [6],TGI [6],GI50 [7],TGI [7],GI50 [8],GI50 [9],TGI [9],GI50 [10],TGI [10] [µM],TGI [8]
COc1ccc(Nc2ccnc(N3CCN(c4ccnc5cc(Cl)ccc45)CC3)n2)cc1,0.292 µM,1.43 µM,0.444 µM,> 20.8,1.31 µM,6.6 µM,2.62 µM,> 100 µM,1.34 µM,> 100 µM,1.21 µM,4.89 µM,1.51 µM,> 29.8 µM,0.696 µM,1.39 µM,6.99 µM,1.4 µM,9.06,
Oc1cccc2c1NCCC2,0.144 µM,4.51 µM,0.141 µM,> 73.9,0.177 µM,32.7 µM,0.891 µM,> 100 µM,1.65 µM,> 100 µM,2.19 µM,> 100 µM,0.183 µM,> 100 µM,0.745 µM,0.581 µM,96.2 µM,0.183 µM,> 100,> 100 µM
O=C(NNS(=O)(=O)c1ccc(Cl)cc1Cl)c1cccnc1Nc1ccc(Cl)cc1,22 µM,75.4 µM,12.9 µM,25.6,16.9 µM,43.8 µM,17.1 µM,52.4 µM,28.7 µM,> 100 µM,35.4 µM,> 100 µM,19 µM,50.7 µM,,10.8 µM,50.7 µM,17.8 µM,41.8,
CN1CCc2nc3sc(C(N)=O)c(N)c3c(-c3cccs3)c2C1,2.38 µM,6.56 µM,4.99 µM,> 100,1.11 µM,3.63 µM,3.35 µM,> 100 µM,7.38 µM,> 100 µM,2.91 µM,9.59 µM,4.77 µM,> 100 µM,5.16 µM,2.81 µM,> 100 µM,3.07 µM,21.7,> 100 µM
Fc1cccc(F)c1C(Nc1nncs1)Nc1nncs1,,> 100 µM,,> 100,,> 100 µM,,> 100 µM,,> 100 µM,,> 100 µM,,> 100 µM,,,> 100 µM,,> 100,> 100 µM
CCc1c(C)nc2sc3c(N)ncnc3c2c1C,> 25 µM,> 25 µM,> 25 µM,> 25,> 25 µM,> 25 µM,> 25 µM,> 25 µM,> 25 µM,> 25 µM,> 25 µM,> 25 µM,> 25 µM,> 25 µM,> 25 µM,> 25 µM,> 25 µM,> 25 µM,> 25,> 25 µM
COc1ccc(/C=C(/C)[N+](=O)[O-])cc1OC,1.78 µM and 1.72 µM,3.62 µM and 3.89 µM,1.31 µM and 1.72 µM,> 100,1.7 µM and 1.42 µM,3.16 µM and 2.78 µM,14.3 µM and 16.7 µM,27.4 µM and 30.4 µM,1.91 µM and 2.27 µM,3.88 µM and 4.77 µM,1.76 µM and 1.87 µM,3.66 µM and 3.6 µM,1.97 µM and 2.38 µM,4.26 µM and 5.02 µM,2.79 µM and 2.26 µM,1.54 µM and 1.37 µM,3.29 µM and 3.23 µM,6.2 µM and 5.55 µM,> 100,7.75 µM and 5.68 µM
COc1cc2c(cc1F)C(c1ccccc1Cl)=Nc1c(n[nH]c1C)N2,0.995 µM,17.2 µM,0.493 µM,> 50.4,0.242 µM,1.46 µM,1.59 µM,33.1 µM,5.63 µM,28.6 µM,5.66 µM,20.4 µM,2.12 µM,16.9 µM,1.54 µM,1.59 µM,26.4 µM,0.214 µM,0.838,18 µM
O=C(CN1N=C(c2ccc(F)cc2)CCC1=O)Nc1nc2ccccc2s1,7.62 µM,> 100 µM,5.32 µM,> 100,5.91 µM,> 55.9 µM,> 100 µM,> 100 µM,2.14 µM,,> 100 µM,> 100 µM,1.24 µM,3.47 µM,0.165 µM,> 100 µM,> 100 µM,6.75 µM,66,0.361 µM
Oc1cc(-n2cccn2)c(O)cc1-n1cccn1,,71.3 µM,,39.3,,37.8 µM,,> 100 µM,,36.9 µM,,64.9 µM,,50.5 µM,,,56.3 µM,,> 100,> 75.9 µM
N#CCCNc1nonc1-c1nc2ccccc2n1CC(=O)c1ccc(NC(=O)[C@@H](N)CCCCN)cc1,0.0213 µM,> 100 µM,0.0322 µM,> 100,0.0353 µM,> 100 µM,0.0313 µM,> 100 µM,0.0436 µM,> 100 µM,,,0.0599 µM,> 100 µM,0.11 µM,> 73.8 µM,> 100 µM,0.908 µM,> 100,> 100 µM
COc1cc2ncc3c(nc4sccn43)c2cc1OC,22.9 µM,> 100 µM,31.6 µM,> 100,> 100 µM,> 100 µM,30.1 µM,> 100 µM,32 µM,70.4 µM,28.9 µM,95 µM,24.2 µM,78.3 µM,,29.2 µM,> 100 µM,22.1 µM,> 100,
CSc1ccc(C2=NN(C(C)=O)C(c3ccc(-c4ccc(Cl)cc4)o3)C2)cc1 (stereo not given),20.1 µM,> 100 µM,31.5 µM,> 100,44.6 µM,> 100 µM,28.9 µM,> 100 µM,32.9 µM,> 100 µM,86.2 µM,> 100 µM,19.3 µM,> 100 µM,6.06 µM,17.9 µM,79.6 µM,49.8 µM,> 100,> 100 µM
O=C(O)c1ccccc1NC(=S)c1ccccc1,,> 100 µM,,> 100,,> 100 µM,,> 100 µM,,29 µM,,,,> 100 µM,,,> 100 µM,,> 100,98.9 µM
Cn1ccnc1Oc1ccc(Cl)cc1,,23.5 µM,,42.3,,37.1 µM,,> 100 µM,,19.8 µM,,27.4 µM,,37.4 µM,,,14.3 µM,,66.1,

# — PubChem BioAssay (NCI)
